Results published in ChEMBL document CHEMBL1201862, “PubChem BioAssay data set” (2004).
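Each compound was tested at five concentrations against cells in 96-well plates for 48 hours. GI50 is the concentration that inhibits growth by half.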 Activity calls are given as the source filed them. Rule as the data show it: active = GI50 up to about 1.1 µM and inactive = higher.

Assays:
Test in all cases: NCI anticancer screen, dose series, 48 h
DU-145 = system: DU-145
Malme-3M = system: Malme-3M
UACC-257 = system: UACC-257
T47D = system: T47D
SK-MEL-5 = system: SK-MEL-5
A498 = system: A498
MOLT-4 = system: MOLT-4
SNB-19 = system: SNB-19
TK-10 = system: TK-10
OVCAR-4 = system: OVCAR-4
MDA-MB-435 = system: MDA-MB-435
CAKI-1 = system: CAKI-1
SF-268 = system: SF-268
HOP-62 = system: HOP-62
NCI-H460 = system: NCI-H460
BT-549 = system: BT-549
IGROV-1 = system: IGROV-1
SF-295 = system: SF-295
SNB-75 = system: SNB-75
UACC-62 = system: UACC-62
ACHN = system: ACHN
SW-620 = system: SW-620
SR = system: SR
CCRF-CEM = system: CCRF-CEM
SK-OV-3 = system: SK-OV-3
HCT-15 = system: HCT-15
SK-MEL-2 = system: SK-MEL-2
RPMI-8226 = system: RPMI-8226
PC-3 = system: PC-3
NCI-H522 = system: NCI-H522
MDA-MB-231 = system: MDA-MB-231
NCI/ADR-RES = system: NCI/ADR-RES
NCI-H23 = system: NCI-H23
SN12C = system: SN12C
COLO 205 = system: COLO 205
M14 = system: M14
EKVX = system: EKVX
Hs-578T = system: Hs-578T
HOP-92 = system: HOP-92
OVCAR-5 = system: OVCAR-5
HCT-116 = system: HCT-116
A549 = system: A549
MCF7 = system: MCF7
RXF 393 = system: RXF 393
HL-60 = system: HL-60
LOX IMVI = system: LOX IMVI
SK-MEL-28 = system: SK-MEL-28
U-251 = system: U-251
KM12 = system: KM12
OVCAR-3 = system: OVCAR-3
NCI-H226 = system: NCI-H226
786-0 = system: 786-0
UO-31 = system: UO-31
SF-539 = system: SF-539
MDA-N = system: MDA-N
HCC 2998 = system: HCC 2998
HT-29 = system: HT-29
K562 = system: K562
OVCAR-8 = system: OVCAR-8

With `COC(=O)C(=O)Nc1cc2c3c(c1)Oc1cccc4c1C3(C)c1c(cccc1O2)O4` the GI50 (DU-145) was > 44.7 µM (inactive), the GI50 (Malme-3M) was > 65.9 µM (inactive) and the GI50 (UACC-257) was > 100 µM (inactive). For the same molecule, the GI50 (T47D) was > 61.7 µM (inactive), the GI50 (SK-MEL-5) was > 100 µM (inactive) and the GI50 (A498) was 39.7 µM (inactive). The GI50 (MOLT-4) was 39.2 µM (inactive), the GI50 (SNB-19) was > 100 µM (inactive) and the GI50 (TK-10) was 99.5 µM (inactive). The GI50 (OVCAR-4) was > 100 µM (inactive), the GI50 (MDA-MB-435) was > 100 µM (inactive) and the GI50 (CAKI-1) was > 72.4 µM (inactive). For the same molecule, the GI50 (SF-268) was > 100 µM (inactive), the GI50 (HOP-62) was > 100 µM (inactive) and the GI50 (NCI-H460) was > 100 µM (inactive). For the same molecule, the GI50 (BT-549) was > 100 µM (inactive), the GI50 (IGROV-1) was 55.8 µM (inactive) and the GI50 (SF-295) was > 100 µM (inactive). The GI50 (SNB-75) was > 100 µM (inactive), the GI50 (UACC-62) was > 100 µM (inactive) and the GI50 (ACHN) was > 82 µM (inactive). The GI50 (SW-620) was > 100 µM (inactive), the GI50 (SR) was 2.93 µM (inactive) and the GI50 (CCRF-CEM) was 1.26 µM (inactive). The GI50 (SK-OV-3) was > 100 µM (inactive), the GI50 (HCT-15) was 97.5 µM and the GI50 (SK-MEL-2) was > 87.7 µM (inactive). For the same molecule, the GI50 (RPMI-8226) was > 44.8 µM (inactive), the GI50 (PC-3) was 97.1 µM (inactive) and the GI50 (NCI-H522) was > 86.3 µM (inactive). The GI50 (MDA-MB-231) was > 100 µM (inactive), the GI50 (NCI/ADR-RES) was 6.56 µM (inactive) and the GI50 (NCI-H23) was > 100 µM (inactive). The GI50 (SN12C) was > 69.5 µM (inactive), the GI50 (COLO 205) was > 31.6 µM (inactive) and the GI50 (M14) was > 100 µM (inactive). For the same molecule, the GI50 (EKVX) was > 82.6 µM (inactive), the GI50 (Hs-578T) was > 83.4 µM (inactive) and the GI50 (HOP-92) was 72.6 µM (inactive). The GI50 (OVCAR-5) was > 55.2 µM (inactive), the GI50 (HCT-116) was > 75.2 µM (inactive) and the GI50 (A549) was > 100 µM (inactive). The GI50 (MCF7) was > 100 µM (inactive), the GI50 (RXF 393) was 18.7 µM (inactive) and the GI50 (HL-60) was 0.105 µM (active). For the same molecule, the GI50 (LOX IMVI) was 71.3 µM (inactive), the GI50 (SK-MEL-28) was > 100 µM (inactive) and the GI50 (U-251) was > 100 µM (inactive). For the same molecule, the GI50 (KM12) was > 100 µM (inactive), the GI50 (OVCAR-3) was 34.2 µM (inactive) and the GI50 (NCI-H226) was 4.75 µM (inactive). For the same molecule, the GI50 (786-0) was 30.9 µM (inactive), the GI50 (UO-31) was 98.6 µM (inactive) and the GI50 (SF-539) was 33 µM (inactive). The GI50 (MDA-N) was > 100 µM (inactive) and the GI50 (HCC 2998) was > 59.2 µM (inactive).

`CC(=O)OCCOCn1cnc2c(Cl)nc(Cl)nc21` was tested, and the GI50 (DU-145) was 19.5 µM (inactive), the GI50 (Malme-3M) was 15.8 µM (inactive) and the GI50 (UACC-257) was 17.1 µM (inactive). For the same molecule, the GI50 (T47D) was 10 µM (inactive), the GI50 (SK-MEL-5) was 18.1 µM (inactive) and the GI50 (A498) was 32.2 µM (inactive). For the same molecule, the GI50 (MOLT-4) was 19.2 µM (inactive), the GI50 (SNB-19) was 31.2 µM (inactive) and the GI50 (HT-29) was 15.4 µM (inactive). The GI50 (TK-10) was 39.4 µM (inactive), the GI50 (OVCAR-4) was 19.1 µM (inactive) and the GI50 (MDA-MB-435) was 17.3 µM (inactive). For the same molecule, the GI50 (CAKI-1) was 0.275 µM (active), the GI50 (SF-268) was 17.9 µM (inactive) and the GI50 (HOP-62) was 17.7 µM (inactive). The GI50 (NCI-H460) was 18.5 µM (inactive), the GI50 (BT-549) was 18.7 µM (inactive) and the GI50 (IGROV-1) was 14.3 µM (inactive). The GI50 (SF-295) was > 10 µM (inactive), the GI50 (SNB-75) was 21.5 µM (inactive) and the GI50 (K562) was 2.44 µM (inactive). The GI50 (UACC-62) was 16.1 µM (inactive), the GI50 (ACHN) was 16.5 µM (inactive) and the GI50 (SW-620) was 12.4 µM (inactive). The GI50 (SR) was 3.87 µM (inactive), the GI50 (CCRF-CEM) was 6.37 µM (inactive) and the GI50 (SK-OV-3) was > 10 µM (inactive). For the same molecule, the GI50 (HCT-15) was 3.64 µM, the GI50 (SK-MEL-2) was 22.3 µM (inactive) and the GI50 (RPMI-8226) was 5.97 µM (inactive). For the same molecule, the GI50 (PC-3) was 17 µM (inactive), the GI50 (NCI-H522) was 2.05 µM (inactive) and the GI50 (MDA-MB-231) was 15.3 µM (inactive). For the same molecule, the GI50 (NCI/ADR-RES) was 24.1 µM (inactive), the GI50 (OVCAR-8) was 20.8 µM (inactive) and the GI50 (NCI-H23) was 18.7 µM (inactive). The GI50 (SN12C) was 18.5 µM (inactive), the GI50 (COLO 205) was 18.6 µM (inactive) and the GI50 (M14) was 17.1 µM (inactive). The GI50 (EKVX) was 2.84 µM (inactive), the GI50 (Hs-578T) was 18.7 µM (inactive) and the GI50 (HOP-92) was 1.67 µM (inactive). For the same molecule, the GI50 (OVCAR-5) was 19.1 µM (inactive), the GI50 (HCT-116) was 18.2 µM (inactive) and the GI50 (A549) was > 10 µM (inactive). For the same molecule, the GI50 (MCF7) was > 10 µM (inactive), the GI50 (RXF 393) was > 10 µM (inactive) and the GI50 (HL-60) was 2.65 µM (inactive). The GI50 (LOX IMVI) was 4.3 µM (inactive), the GI50 (U-251) was 15 µM (inactive) and the GI50 (KM12) was 18.2 µM (inactive). For the same molecule, the GI50 (OVCAR-3) was 14 µM (inactive), the GI50 (NCI-H226) was 19.2 µM (inactive) and the GI50 (786-0) was 21.4 µM (inactive). The GI50 (UO-31) was 21.2 µM (inactive), the GI50 (SF-539) was > 10 µM (inactive) and the GI50 (MDA-N) was 17.4 µM (inactive). For the same molecule, the GI50 (HCC 2998) was 12.2 µM (inactive).
